Assays:
genetically obese mice = test: Anti-obesity activity: carcass lipid in genetically obese mice; format: in vivo
Method: The compounds were administered by oral gavage in water or carboxymethyl-cellulose suspension to genetically obese mice daily for 28 days. At the end of the time the carcass composition was determined.

[1] = system: Blood platelet response to collagen; test: Platelet aggregation inhibition activity (collagen-induced fall in blood platelet concentration); format: in vivo, Male CFLP mice; settings: 2 h after p.o. dose; collagen 400 μg/kg i.v.; Aspirin 600 μmol (108 mg)/kg, p < 0.05; Example 3 5 μmol (1.92 mg)/kg, p = 0.01
Method: Male CFLP mice (ca 20 g, n=8) were dosed orally with compound or vehicle (controls) after an overnight fast. Two hours later each mouse received an intravenous dose of collagen (400 μg/kg, pH 6-6.6). Exactly 30 sec. after injection of collagen, each mouse was placed in a chamber of CO2 until respiration ceased. […] Each concentration was expressed as a percent of that obtained in a tail blood sample taken immediately before injection of collagen.

[2] = system: inflammation induced in the rat ear by croton oil; test: Anti-inflammatory activity: croton oil induced inflammation of the rat ear; format: in vivo; settings: 2.0 mg/RAT EAR, 6 hours; activity = significant (5% level) reduction in ear weight vs non-drug treated control
Method: The method used is based on that described by G. Tonelli et al (Endocrinology, 77, 625-634, 1965). An inflammation is induced in the rat ear by the application of 50 μl of a 1% solution of croton oil in tetrahydrofuran, test compounds being dissolved in the irritant vehicle. After 6 hours the inflammation is assessed by killing the animals and weighing the ears. Topical anti-inflammatory activity of a compound is generally considered to be shown when a significant (5% level) reduction in ear weight is seen compared to non-drug treated control.

[3] = p.o. daily for 28 days, Ex. 5 mp 102-5: 4.8 mg/kg, control 21.10, Ex. 10: 8.6 mg/kg, control 23.13

SMILES | % Inhibition of response to collagen [1] [%] | g LIPID/MOUSE, TREATED (genetically obese mice; [3]) [g LIPID/MOUSE] | also measured
Cc1ccc(CC(C)NCC(O)c2cc3ccccc3o2)cc1 (stereo not drawn) [Example 1, N-[2-(4-Methylphenyl)-1-methylethyl]-2-(2-benzofuranyl)-2-hydroxy ethanamine] |  |  | g LIPID/MOUSE, TREATED (genetically obese mice; 4.8 mg/kg p.o. daily, 15 days only, control 16.25): 13.36 g LIPID/MOUSE
CC(=O)Oc1ccccc1C(=O)O [Aspirin, reference compound] | 29 |  | 
COC(=O)COc1ccc(CC(C)NCC(O)c2cc3ccccc3o2)cc1 (stereo not drawn) [Example 3, N-[2-(4-Carbomethoxymethoxyphenyl)-1-methylethyl]-2-(2-benzofuranyl)-2-hydroxyethanamine] | 29 |  | 
Cc1ccc(CCCNCC(O)c2cc3ccccc3o2)cc1 (stereo not drawn) [Example 10, N-[3-(4-Methylphenyl)propyl]-2-(2-benzofuranyl)-2-hydroxyethanamine] |  | 19.72 | 
Cc1ccc(C[C@@H](C)NC[C@@H](O)c2cc3ccccc3o2)cc1 (relative stereo) [Example 5 mp 102-5, N-[2-(4-methylphenyl)-1-methylethyl]-2-(2-benzofuranyl)-2-hydroxyethanamine] |  | 16.16 | ACTIVITY (topical anti-inflammatory) [2]: Active

Source: US4432993A, “Method of treating obesity hyperglycemia, inflammation and platelet aggregation” (priority 1980, dated 1984)
